Laboratory results from a compilation of properties of binary mixtures (doi:10.1021/acs.jpcb.5b11900).

Experiment: xn = mol fraction of the nth substance listed
Settings: 101 kPa

CC[N+](CC)(CC)CC.O=[N+]([O-])[O-] + CC[NH3+].O=[N+]([O-])[O-]
Settings	electrical conductivity [S/m]	viscosity [mPa·s]
293.15 K, x1 = 0.0501	1.56	50.7
293.15 K, x1 = 0.1	1.27	60.1
293.15 K, x1 = 0.2001	0.797	91.6
293.15 K, x1 = 0.2567	0.623	122
293.15 K, x1 = 0.2995	0.392	144
293.15 K, x1 = 0.35	0.359	211
298.15 K, x1 = 0.0501	1.83	42.2
298.15 K, x1 = 0.1	1.5	49.6
298.15 K, x1 = 0.15	1.21	60.4
298.15 K, x1 = 0.2001	0.96	74
298.15 K, x1 = 0.2567	0.762	96.9
298.15 K, x1 = 0.2995	–	114
298.15 K, x1 = 0.35	0.462	167
303.15 K, x1 = 0.1	1.76	41.4
303.15 K, x1 = 0.2001	1.14	60.7
303.15 K, x1 = 0.2567	0.912	78.3
303.15 K, x1 = 0.2995	0.594	91.3
308.15 K, x1 = 0.0501	2.44	30.3
308.15 K, x1 = 0.1	2.03	35.5
308.15 K, x1 = 0.15	1.65	41.9
308.15 K, x1 = 0.2567	1.08	64.1
308.15 K, x1 = 0.2995	0.715	74.2
308.15 K, x1 = 0.35	0.671	104
313.15 K, x1 = 0.0501	2.78	26
313.15 K, x1 = 0.15	1.91	35.6
313.15 K, x1 = 0.2001	1.56	42.4
313.15 K, x1 = 0.2567	1.26	53.4
313.15 K, x1 = 0.2995	0.848	61.3
313.15 K, x1 = 0.35	0.804	85.4
318.15 K, x1 = 0.0501	3.14	22.5
318.15 K, x1 = 0.1	2.65	26.1
318.15 K, x1 = 0.15	2.17	30.4
318.15 K, x1 = 0.2001	1.79	35.9
318.15 K, x1 = 0.2567	1.46	44.7
318.15 K, x1 = 0.35	0.948	69.4
323.15 K, x1 = 0.0501	3.52	19.7
323.15 K, x1 = 0.1	2.99	22.7
323.15 K, x1 = 0.2001	2.04	30.7
323.15 K, x1 = 0.2567	1.68	37.9
323.15 K, x1 = 0.2995	1.22	42.8
323.15 K, x1 = 0.35	1.11	57.6
328.15 K, x1 = 0.0501	–	17.3
328.15 K, x1 = 0.1	–	19.9
328.15 K, x1 = 0.15	–	22.8
328.15 K, x1 = 0.2995	–	36.4
333.15 K, x1 = 0.0501	–	15.3
333.15 K, x1 = 0.1	–	17.5
333.15 K, x1 = 0.2001	–	23.2
333.15 K, x1 = 0.2567	–	28.1
333.15 K, x1 = 0.2995	–	31.3
333.15 K, x1 = 0.35	–	41.5
338.15 K, x1 = 0.0501	–	13.7
338.15 K, x1 = 0.1	–	15.5
338.15 K, x1 = 0.15	–	17.7
338.15 K, x1 = 0.2001	–	20.3
338.15 K, x1 = 0.2567	–	24.3
338.15 K, x1 = 0.2995	–	27
338.15 K, x1 = 0.35	–	35.1
343.15 K, x1 = 0.0501	–	12.3
343.15 K, x1 = 0.1	–	13.6
343.15 K, x1 = 0.2001	–	18
343.15 K, x1 = 0.2567	–	21.4
343.15 K, x1 = 0.2995	–	23.6
343.15 K, x1 = 0.35	–	30.2
348.15 K, x1 = 0.0501	–	11.1
348.15 K, x1 = 0.1	–	12.2
348.15 K, x1 = 0.15	–	14.1
348.15 K, x1 = 0.2567	–	18.9
348.15 K, x1 = 0.2995	–	20.7
353.15 K, x1 = 0.0501	–	10
353.15 K, x1 = 0.15	–	12.7
353.15 K, x1 = 0.2001	–	14.4
353.15 K, x1 = 0.2567	–	16.9
353.15 K, x1 = 0.2995	–	18.4

CC[NH3+].O=[N+]([O-])[O-] + CC[NH+](CC)CC.O=[N+]([O-])[O-]
x2 = 0
Settings	electrical conductivity [S/m]	viscosity [mPa·s]
303.15 K	2.6	31
308.15 K	2.97	26.5
318.15 K	3.78	20
328.15 K	–	15.6
333.15 K	–	13.8
338.15 K	–	12.5
343.15 K	–	11.2
348.15 K	–	10.2
353.15 K	–	9.2
